Drawing on US10072003B2, “Tetrahydronaphthyridine derivatives as mGluR2-negative allosteric modulators, compositions, and their use” (Merck Sharp & Dohme Corp., priority 2014, dated 2018), this text covers IC50 for eleven molecules.

For this test, the target named is recombinant human mGluR2 (Homo sapiens (Human), UniProt Q14416). The test can be described thus: FLIPR Ca2+ mobilization antagonist assay in CHO dhfr- cells expressing human mGluR2 and Gα16. Format: cell-based. Conditions: antagonist response after addition of 2,500 nM glutamate, Fluo-4 AM, FLIPR384. A digest of the protocol: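 CHO dhfr- cells stably co-expressing human mGluR2 and Gα16, Fluo-4 AM loaded, preincubated with compound, then challenged with 2,500 nM glutamate; Ca2+ response read by FLIPR. Maximum calcium response vs concentration fitted to four-parameter logistic for IC50.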
Chain of recombinant human mGluR2 (Q14416 19-872): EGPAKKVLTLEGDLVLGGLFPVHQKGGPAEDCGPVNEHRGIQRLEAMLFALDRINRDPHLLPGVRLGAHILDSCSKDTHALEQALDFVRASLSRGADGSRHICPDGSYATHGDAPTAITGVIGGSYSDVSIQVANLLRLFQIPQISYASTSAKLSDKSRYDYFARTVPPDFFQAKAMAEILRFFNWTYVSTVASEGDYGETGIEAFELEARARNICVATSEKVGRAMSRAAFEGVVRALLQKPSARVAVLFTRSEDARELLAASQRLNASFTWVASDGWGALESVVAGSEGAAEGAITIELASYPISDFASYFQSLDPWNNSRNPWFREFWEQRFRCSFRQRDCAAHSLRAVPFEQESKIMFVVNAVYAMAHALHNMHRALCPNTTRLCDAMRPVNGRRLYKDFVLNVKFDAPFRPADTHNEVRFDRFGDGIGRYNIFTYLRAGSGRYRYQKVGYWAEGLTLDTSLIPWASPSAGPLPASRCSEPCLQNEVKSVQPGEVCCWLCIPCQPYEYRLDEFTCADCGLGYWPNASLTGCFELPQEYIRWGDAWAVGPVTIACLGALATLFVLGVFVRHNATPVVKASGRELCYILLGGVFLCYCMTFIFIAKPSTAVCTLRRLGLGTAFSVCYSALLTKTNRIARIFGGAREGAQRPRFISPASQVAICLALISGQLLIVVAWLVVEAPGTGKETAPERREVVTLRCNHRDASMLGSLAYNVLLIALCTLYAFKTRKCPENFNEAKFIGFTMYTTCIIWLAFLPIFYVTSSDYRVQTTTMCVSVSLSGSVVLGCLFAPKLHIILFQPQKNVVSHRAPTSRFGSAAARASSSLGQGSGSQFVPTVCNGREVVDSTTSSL
On to `CC(C)(C)[C@@H]1C[C@H](CN2CCc3c(-c4ccc(F)cc4)cc(C(N)=O)nc3C2)CCO1` [Example 1-3A, 7-(((2S,4R)-2-(tert-butyl)tetrahydro-2H-pyran-4-yl)methyl)-4-(4-fluorophenyl)-5,6,7,8-tetrahydro-1,7-naphthyridine-2-carboxamide], for which the IC50 came to 132 nM. As for `NC(=O)c1cc(-c2ccc(F)cc2)c2c(n1)CN(C[C@H]1CCN[C@@H](C(F)(F)F)C1)CC2` [Example 1-1A, 4-(4-fluorophenyl)-7-(((2R,4S)-2-(trifluoromethyl)piperidin-4-yl)methyl)-5,6,7,8-tetrahydro-1,7-naphthyridine-2-carboxamide], the figure is 98.2 nM; as for `NC(=O)c1cc(-c2ccc(F)cc2)c2c(n1)CN(C[C@H]1CCO[C@@H](C3CC3)C1)CC2` [Example 1-2B, 7-(((2R,4S)-2-cyclopropyltetrahydro-2H-pyran-4-yl)methyl)-4-(4-fluorophenyl)-5,6,7,8-tetrahydro-1,7-naphthyridine-2-carboxamide], 129 nM. As for `CC1CCCN(c2cc(C(N)=O)nc3c2CCN(Cc2ccnc(C(F)(F)F)c2)C3)C1` (single isomer, unassigned) [Example 5-5B, (R) or (S)-4-(3-methylpiperidin-1-yl)-7-((2-(trifluoromethyl)pyridin-4-yl)methyl)-5,6,7,8-tetrahydro-1,7-naphthyridine-2-carboxamide], the figure is 12.9 nM; as for `CC(c1ccnn1C)N1CCc2c(-c3ccc(F)cc3F)cc(C(N)=O)nc2C1` (single isomer, unassigned) [Example 7-4, (S) or (R)-4-(2,4-difluorophenyl)-7-[(1S)-1-(1-methyl-1H-pyrazol-5-yl)ethyl]-5,6,7,8-tetrahydro-1,7-naphthyridine-2-carboxamide], 20.1 nM; as for `NC(=O)c1cc(-c2ccc(Cl)cc2F)c2c(n1)CN(Cc1cccnc1)CC2` [Example 10-3, 4-(4-chloro-2-fluorophenyl)-7-(pyridin-3-ylmethyl)-5,6,7,8-tetrahydro-1,7-naphthyridine-2-carboxamide], 12 nM. As for `CS(=O)(=O)c1cccc(CN2CCc3c(-c4ccc(F)cc4)cc(C(N)=O)nc3C2)c1` [Example 2-6, 4-(4-fluorophenyl)-7-[3-(methylsulfonyl)benzyl]-5,6,7,8-tetrahydro-1,7-naphthyridine-2-carboxamide], the figure is 23 nM; as for `COc1cc(C(N2CCc3c(-c4cnn(C)c4)cc(C(N)=O)nc3C2)C(F)(F)F)ccn1` (racemic) [Example 3-2A, (S) and (R)-4-(1-methyl-1H-pyrazol-4-yl)-7-(2,2,2-trifluoro-1-(2-methoxypyridin-4-yl)ethyl)-5,6,7,8-tetrahydro-1,7-naphthyridine-2-carboxamide], 9.6 nM; as for `NC(=O)c1cc(-c2ccc(Cl)cc2F)c2c(n1)CN(Cc1cc(C(F)(F)F)ncn1)CC2` [Example 11-12, 4-(4-chloro-2-fluorophenyl)-7-{[6-(trifluoromethyl)pyrimidin-4-yl]methyl}-5,6,7,8-tetrahydro-1,7-naphthyridine-2-carboxamide], 10 nM.

Take `Cc1nc(CN2CCc3c(-c4ccc(Cl)cc4F)cc(C(N)=O)nc3C2)no1` [Example 9-2, 4-(4-chloro-2-fluorophenyl)-7-[(5-methyl-1,2,4-oxadiazol-3-yl)methyl]-5,6,7,8-tetrahydro-1,7-naphthyridine-2-carboxamide]: the IC50 was found to be 9.7 nM. The result for `CC1(C)CC(CN2CCc3c(-c4ccc(F)cc4F)cc(C(N)=O)nc3C2)CCO1` (single isomer, unassigned) [Example 1-11A, (R) or (S)-4-(2,4-difluorophenyl)-7-[(2,2-dimethyltetrahydro-2H-pyran-4-yl)methyl]-5,6,7,8-tetrahydro-1,7-naphthyridine-2-carboxamide] reads 30.1 nM.
